{"source": "patent US12398151B2", "about": "“Sumo inhibitor compounds and uses thereof” (SUVALENT THERAPEUTICS, INC., priority 2019, dated 2025)", "key": {"[1]": {"molecular_target": "T1, SUMO E1 (Homo sapiens, UniProt Q9UBT2)", "T1 sequence (Q9UBT2 1-640)": "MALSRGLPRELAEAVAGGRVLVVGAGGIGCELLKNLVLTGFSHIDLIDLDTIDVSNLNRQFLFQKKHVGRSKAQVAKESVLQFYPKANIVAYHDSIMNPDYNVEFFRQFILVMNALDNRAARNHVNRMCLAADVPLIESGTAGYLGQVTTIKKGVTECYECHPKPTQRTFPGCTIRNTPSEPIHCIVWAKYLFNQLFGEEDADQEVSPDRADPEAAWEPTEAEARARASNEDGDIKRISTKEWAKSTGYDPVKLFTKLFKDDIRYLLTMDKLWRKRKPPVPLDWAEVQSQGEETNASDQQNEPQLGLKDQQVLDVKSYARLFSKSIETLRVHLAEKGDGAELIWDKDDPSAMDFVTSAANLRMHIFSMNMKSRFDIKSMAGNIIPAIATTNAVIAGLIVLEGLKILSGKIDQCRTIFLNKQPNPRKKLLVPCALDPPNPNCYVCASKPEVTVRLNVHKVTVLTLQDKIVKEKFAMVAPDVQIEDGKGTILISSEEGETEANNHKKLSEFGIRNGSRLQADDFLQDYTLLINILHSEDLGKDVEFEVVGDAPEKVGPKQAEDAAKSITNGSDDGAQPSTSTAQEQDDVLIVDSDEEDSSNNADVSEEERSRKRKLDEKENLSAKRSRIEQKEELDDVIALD", "T1 sequence (Q9UBE0 1-346 partner)": "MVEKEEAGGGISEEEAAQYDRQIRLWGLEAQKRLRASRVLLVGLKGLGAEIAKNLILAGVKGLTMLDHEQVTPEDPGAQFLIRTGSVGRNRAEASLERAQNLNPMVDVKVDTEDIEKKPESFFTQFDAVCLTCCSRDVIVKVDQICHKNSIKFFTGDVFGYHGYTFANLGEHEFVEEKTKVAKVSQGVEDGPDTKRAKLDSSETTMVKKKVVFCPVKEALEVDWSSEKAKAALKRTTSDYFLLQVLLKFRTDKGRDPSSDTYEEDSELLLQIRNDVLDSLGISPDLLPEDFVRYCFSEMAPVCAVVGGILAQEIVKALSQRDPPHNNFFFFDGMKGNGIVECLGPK", "assay": "SUMO E1 inhibition: UBC9-SUMO1 conjugation by SDS gel electrophoresis", "type": "biochemical", "conditions": "read-out: SUMO E1 percent inhibition of adduct formation; for inhibition at 27 µM: 27 uM compound; for inhibition at 9 µM: 9 uM compound; for inhibition at 6 µM: 6 uM compound", "method_in_brief": "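SUMO E1 was preincubated with compound for a set time, then UBC9, SUMO1 and ATP were added and incubated at 37 °C. After Laemmli quench, UBC9-SUMO1 adduct was resolved by SDS gel; percent inhibition from band intensity versus no-compound control, reported with compound concentration (μM) and preincubation time (min).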"}, "[2]": {"molecular_target": "T2, Atg7 (Homo sapiens, UniProt O95352)", "T2 sequence (O95352 1-703)": "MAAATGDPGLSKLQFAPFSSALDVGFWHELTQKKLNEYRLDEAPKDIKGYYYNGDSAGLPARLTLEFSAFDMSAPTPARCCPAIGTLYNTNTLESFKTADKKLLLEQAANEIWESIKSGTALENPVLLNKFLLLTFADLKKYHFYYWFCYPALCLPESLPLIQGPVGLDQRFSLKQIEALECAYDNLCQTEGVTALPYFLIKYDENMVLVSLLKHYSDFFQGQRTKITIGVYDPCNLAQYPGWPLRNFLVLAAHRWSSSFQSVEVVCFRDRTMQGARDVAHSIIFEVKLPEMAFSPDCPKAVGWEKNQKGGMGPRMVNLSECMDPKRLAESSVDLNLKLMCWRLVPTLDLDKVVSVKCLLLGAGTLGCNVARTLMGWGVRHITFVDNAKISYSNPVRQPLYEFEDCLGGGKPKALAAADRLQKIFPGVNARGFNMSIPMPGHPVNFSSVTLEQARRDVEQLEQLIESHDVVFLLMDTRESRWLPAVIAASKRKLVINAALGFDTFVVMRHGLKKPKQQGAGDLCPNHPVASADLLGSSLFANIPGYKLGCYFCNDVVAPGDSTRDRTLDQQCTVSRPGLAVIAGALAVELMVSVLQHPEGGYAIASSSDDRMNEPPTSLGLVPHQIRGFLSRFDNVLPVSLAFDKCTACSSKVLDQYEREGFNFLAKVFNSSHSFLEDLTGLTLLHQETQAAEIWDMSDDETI", "assay": "Atg7 activating enzyme (E1) inhibition", "type": "biochemical", "conditions": "25 uM compound, 60 min preincubation; read-out: Atg7 percent inhibition of adduct formation", "method_in_brief": "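Compounds were assessed for their ability to inhibit the Atg7 activating enzyme (E1) following previously published methods and protocols. The E1 enzyme was preincubated with compound, and activity was expressed as the percent inhibition of adduct formation, reported together with the compound concentration in uM and the E1–compound preincubation time in minutes.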"}}, "note": "Like-named read-outs stand apart in the source and are kept apart here."}
{"smiles": "C=CC(=O)N1Cc2sc(Cl)cc2[C@@H](c2ccccc2C2CC2)C1", "note": "[Compound 135]", "values": [{"measurement": "inhibition at 27 µM", "setting": "[1]; 30 min preincubation", "result": 95, "unit": "%"}, {"measurement": "inhibition at 25 µM", "setting": "[2]", "result": "< 1", "unit": "%"}]}
{"smiles": "C=CC(=O)N1Cc2sc(Cl)cc2[C@@H](c2ccccc2-c2ccncc2)C1", "note": "[Compound 136]", "values": [{"measurement": "inhibition at 3 µM", "setting": "[1]; 3 uM compound, 30 min preincubation", "result": 100, "unit": "%"}, {"measurement": "inhibition at 25 µM", "setting": "[2]", "result": "< 1", "unit": "%"}]}
{"smiles": "C=CC(=O)N1CC[C@H](c2ccccc2)c2cc(Cl)sc2C1", "note": "[Compound 137]", "values": [{"measurement": "inhibition at 27 µM", "setting": "[1]; 30 min preincubation", "result": "< 1", "unit": "%"}, {"measurement": "inhibition at 25 µM", "setting": "[2]", "result": "< 1", "unit": "%"}]}
{"smiles": "C=CC(=O)N1Cc2sc(Cl)cc2[C@@H](c2ccccc2CC2CCOCC2)C1", "note": "[Compound 138]", "values": [{"measurement": "inhibition at 9 µM", "setting": "[1]; 15 min preincubation", "result": 50, "unit": "%"}, {"measurement": "inhibition at 25 µM", "setting": "[2]", "result": "< 1", "unit": "%"}]}
{"smiles": "C=CC(=O)N1CCc2ccccc2[C@@H](c2ccccc2)C1", "note": "[Compound 139]", "values": [{"measurement": "inhibition at 27 µM", "setting": "[1]; 30 min preincubation", "result": "< 1", "unit": "%"}, {"measurement": "inhibition at 25 µM", "setting": "[2]", "result": "< 1", "unit": "%"}]}
{"smiles": "C=CC(=O)N1CCc2ccccc2[C@@H](c2ccccc2)[C@H]1C", "note": "[Compound 140]", "values": [{"measurement": "inhibition at 27 µM", "setting": "[1]; 30 min preincubation", "result": "< 1", "unit": "%"}, {"measurement": "inhibition at 25 µM", "setting": "[2]", "result": "< 1", "unit": "%"}]}
{"smiles": "O=C(/C=C/C(F)(F)F)N1Cc2sc(Cl)cc2[C@@H](c2ccccc2CC2CCOCC2)C1", "note": "[Compound 141]", "values": [{"measurement": "inhibition at 1 µM", "setting": "[1]; 1 uM compound, 30 min preincubation", "result": 50, "unit": "%"}, {"measurement": "inhibition at 25 µM", "setting": "[2]", "result": "< 1", "unit": "%"}]}
{"smiles": "C=CC(=O)N1CCc2sc(Cl)cc2[C@@H](c2ccccc2)C1", "note": "[Compound 142]", "values": [{"measurement": "inhibition at 9 µM", "setting": "[1]; 30 min preincubation", "result": 80, "unit": "%"}, {"measurement": "inhibition at 25 µM", "setting": "[2]", "result": "< 1", "unit": "%"}]}
{"smiles": "Cc1ccccc1[C@H]1CN(C(=O)/C=C/C(F)(F)c2ccccn2)Cc2sc(Cl)cc21", "note": "[Compound 143]", "values": [{"measurement": "inhibition at 27 µM", "setting": "[1]; 30 min preincubation", "result": "< 1", "unit": "%"}, {"measurement": "inhibition at 25 µM", "setting": "[2]", "result": "< 1", "unit": "%"}]}
{"smiles": "C=CC(=O)N1Cc2sc(Cl)cc2[C@@H](C2=CN(C)CC=C2)C1", "note": "[Compound 145]", "values": [{"measurement": "inhibition at 9 µM", "setting": "[1]; 30 min preincubation", "result": "< 1", "unit": "%"}, {"measurement": "inhibition at 25 µM", "setting": "[2]", "result": "< 1", "unit": "%"}]}
{"smiles": "C=CC(=O)N1Cc2sccc2[C@@H]([C@H]2CCCN(C)C2)C1", "note": "[Compound 146]", "values": [{"measurement": "inhibition at 9 µM", "setting": "[1]; 30 min preincubation", "result": "< 1", "unit": "%"}, {"measurement": "inhibition at 25 µM", "setting": "[2]", "result": "< 1", "unit": "%"}]}
{"smiles": "C=CC(=O)N1Cc2sc(Cl)cc2[C@@H]([C@H]2CCCN(C)C2)C1", "note": "[Compound 147]", "values": [{"measurement": "inhibition at 9 µM", "setting": "[1]; 30 min preincubation", "result": "< 1", "unit": "%"}, {"measurement": "inhibition at 25 µM", "setting": "[2]", "result": "< 1", "unit": "%"}]}
{"smiles": "C=CC(=O)N1Cc2sc(Cl)cc2[C@@H](c2ccco2)C1", "note": "[Compound 148]", "values": [{"measurement": "inhibition at 9 µM", "setting": "[1]; 30 min preincubation", "result": "< 1", "unit": "%"}, {"measurement": "inhibition at 25 µM", "setting": "[2]", "result": "< 1", "unit": "%"}]}
{"smiles": "C=CC(=O)N1Cc2sc(Cl)c(F)c2[C@@H](c2ccccc2C)C1", "note": "[Compound 150]", "values": [{"measurement": "inhibition at 22 µM", "setting": "[1]; 22 uM compound, 30 min preincubation", "result": 50, "unit": "%"}, {"measurement": "inhibition at 25 µM", "setting": "[2]", "result": "< 1", "unit": "%"}]}
{"smiles": "C=CC(=O)N1Cc2sc(Cl)cc2[C@@H](c2ccccc2OCCN(C)C)C1", "note": "[Compound 151]", "values": [{"measurement": "inhibition at 6 µM", "setting": "[1]; 15 min preincubation", "result": "< 1", "unit": "%"}, {"measurement": "inhibition at 25 µM", "setting": "[2]", "result": "< 1", "unit": "%"}]}
{"smiles": "C=CC(=O)N1Cc2sc(Cl)cc2[C@@H](c2ccccc2OCCCN(C)C)C1", "note": "[Compound 152]", "values": [{"measurement": "inhibition at 6 µM", "setting": "[1]; 15 min preincubation", "result": "< 1", "unit": "%"}, {"measurement": "inhibition at 25 µM", "setting": "[2]", "result": "< 1", "unit": "%"}]}
{"smiles": "C=CC(=O)N1Cc2sc(Cl)cc2[C@@H](c2ccccc2OCCCN2CCCC2)C1", "note": "[Compound 153]", "values": [{"measurement": "inhibition at 6 µM", "setting": "[1]; 15 min preincubation", "result": "< 1", "unit": "%"}, {"measurement": "inhibition at 25 µM", "setting": "[2]", "result": "< 1", "unit": "%"}]}
{"smiles": "C=CC(=O)N1Cc2sc(Cl)cc2[C@@H](c2csc3ccccc23)C1", "note": "[Compound 154]", "values": [{"measurement": "inhibition at 18 µM", "setting": "[1]; 18 uM compound, 15 min preincubation", "result": "< 1", "unit": "%"}, {"measurement": "inhibition at 25 µM", "setting": "[2]", "result": "< 1", "unit": "%"}]}
{"smiles": "C=CC(=O)N1Cc2sccc2[C@@H](c2ccc(OC)cc2)C1", "note": "[Compound 155]", "values": [{"measurement": "inhibition at 15 µM", "setting": "[1]; 15 uM compound, 15 min preincubation", "result": "< 1", "unit": "%"}, {"measurement": "inhibition at 25 µM", "setting": "[2]", "result": "< 1", "unit": "%"}]}
